{"source": "paper PMC9964651", "about": "“Discovery of Ureido-Based Apcin Analogues as Cdc20-specific Inhibitors against Cancer” (Pharmaceuticals, 2023)", "key": {"[1]": {"tested_on": "Hela cells", "assay": "Cell-cycle assay (flow cytometry, propidium iodide)", "format": "cell-based, human", "settings": "24 h; for number of cells in the mitotic G2/M phase: in words", "protocol": "Then, the preset drug concentration was added and incubated for 24 h. Cells were collected by centrifugation and were fixed overnight with pre-cooled ethanol (70%) and washed twice with buffer, propidium-iodide staining solution was added (0.5 mL/well), and they were incubated at 37 °C for 30 min in the dark for flow detection."}, "[2]": {"tested_on": "tubulin", "assay": "Tubulin polymerization assay in vitro", "format": "biochemical", "protocol": "We used an HTS-Tubulin Polymerization Assay Kit (BK004P, Cytoskeleton, USA) to assess the inhibitory effect of compounds on tubulin polymerization. Tubulin solution was prepared, and the compound solution and paclitaxel solution were tested according to the instructions of the kit. General tubulin buffer, paclitaxel solution, and 10× test compound solution were added to a 96-well plate (10 μL/well) and incubated at 37 °C for two minutes. A total of 100 μL of tubulin solution was pipetted into the corresponding wells. The plate was immediately placed on a multi-function microplate reader at 37 °C, and the continuous kinetic values were recorded.\nFigure 7 The effect of compound 20 and compound 27 on in vitro tubulin polymerization was tested. Polymerization of purified tubulin was performed in a cell-free assay. Tubulin protein was incubated at 37 °C in a reaction buffer exposed to vehicle control or test compounds at the indicated concentrations. Absorbance at 340 nm was monitored at 37 °C every 30 s for 1 h."}, "[3]": {"tested_on": "Mda-mb-231", "assay": "In vitro antiproliferative assay (CCK-8)", "settings": "Homo sapiens, MDA-MB-231, 48 h, read-out: IC50 ± SD Mda-mb-231", "experimental": "(§1) Hela and MDA-MB-132 cells were grown in DMEM (Gibco) containing 10% FBS and 1% double antibody (penicillin 100 U/mL, streptomycin 100 μg/mL, Solarbio). […] All cell lines were purchased from the Xiangya Cell Bank, Central South University, Changsha, China, and incubated at 37 °C with 5% CO2 in a humidified atmosphere. […] Cytotoxicity assay was assessed using CCK-8 methods. The cells were seeded in a 96-well plate (2 × 10^3–3 × 10^3 cells/well), the 96-well plate was incubated at 37 °C with 5% CO2 in a humidified atmosphere, and the cells were grown in a monolayer; the original culture was discarded. A total of 100 μL of drug-containing medium with a specific concentration gradient was added and then cultivated for 48 h; 10 μL/well of CCK-8 solution was added, put in an incubator, and incubated for 1 h and read with a multi-function microplate reader at a wavelength of 450 nm. The inhibition rate was calculated, and the IC50 results were calculated by GraphPad Prism 7 software. The experiment was repeated three times."}, "[4]": {"tested_on": "Mcf-7", "assay": "In vitro antiproliferative assay (CCK-8)", "settings": "Homo sapiens, MCF7, 48 h, read-out: IC50 ± SD Mcf-7", "experimental": "as §1"}, "[5]": {"tested_on": "Hepg2", "assay": "In vitro antiproliferative assay (CCK-8)", "settings": "Homo sapiens, HepG2, 48 h, read-out: IC50 ± SD Hepg2", "experimental": "as §1"}, "[6]": {"tested_on": "Hela", "assay": "In vitro antiproliferative assay (CCK-8)", "format": "cell-based, human", "settings": "Homo sapiens, HeLa; CCK-8, 48 h, mean ± SD", "excerpt": "The experiment was repeated three times."}, "[7]": {"tested_on": "Hela cells", "assay": "Annexin V-FITC/PI double-staining cell-apoptosis assay", "format": "cell-based, human", "settings": "24 h, in words", "protocol": "Then, the preset drug concentration was added and incubated for 24 h. Cells were collected by centrifugation, resuspended in buffer, and then stained by adding Annexin V-FITC (5 μL) and PI Staining Solution (5 μL) and incubated at room temperature for 10 min. The samples were detected by flow cytometry within 1 h after staining. Flow cytometer (Beckman Coulter Cytofex) was used for subsequent detection, and the data were processed with FlowJo software."}, "[8]": {"tested_on": "Cdc20 and downstream substrates (cyclin B1, securin, Bim, cleaved PARP) in Hela cells", "assay": "Western blot of Cdc20 and Cdc20 downstream proteins", "format": "cell-based, human", "settings": "for Cdc20 protein level: 12 h after addition", "protocol": "The lysate for extracting cellular proteins was prepared with bromophenol blue (0.02%), dithiothreitol (DTT; 0.5M), glycerol (30%), sodium dodecyl sulfate (SDS; 10%) and Tris-Cl (0.25M, pH 6.8). Protein extracts were separated according to molecular weight by the polyacrylamide gel electrophoresis (PAGE) method and then transferred to solid-phase support (PVDF membrane). The PVDF membrane was placed in a blocking solution containing 5% skim milk for 2 h, followed by incubation with primary and secondary antibodies, and the bands were detected and imaged in the ChemiDocTMXRS+ imaging system.\nFigure 1 (A) Expression levels of Cdc20 protein in different cell lines. (B) Cdc20 levels were measured by Western blot 12 h after the addition of compounds. The reproducibility of the results was confirmed by at least two separate experiments. (a) Quantitative results of (A) compared to Hela. (b) Quantitative results of (B) compared to control. Statistical significance was calculated by two-tailed unpaired t test.\nFigure 4 (A) Protein levels of cyclin B1 and securin were measured by Western blot. (B) Protein levels of Bim were measured by Western blot. (C) Protein levels of cleaved PARP were measured by Western blot. […] (a–d) Quantitative results of (A–C) compared to control. Statistical significance was calculated by two-tailed unpaired t test (* p < 0.05, ** p < 0.01, *** p < 0.001)."}, "[9]": {"target": "recombinant human Cdc20 protein (Homo sapiens, UniProt Q12834)", "sequence (Q12834 whole entry)": "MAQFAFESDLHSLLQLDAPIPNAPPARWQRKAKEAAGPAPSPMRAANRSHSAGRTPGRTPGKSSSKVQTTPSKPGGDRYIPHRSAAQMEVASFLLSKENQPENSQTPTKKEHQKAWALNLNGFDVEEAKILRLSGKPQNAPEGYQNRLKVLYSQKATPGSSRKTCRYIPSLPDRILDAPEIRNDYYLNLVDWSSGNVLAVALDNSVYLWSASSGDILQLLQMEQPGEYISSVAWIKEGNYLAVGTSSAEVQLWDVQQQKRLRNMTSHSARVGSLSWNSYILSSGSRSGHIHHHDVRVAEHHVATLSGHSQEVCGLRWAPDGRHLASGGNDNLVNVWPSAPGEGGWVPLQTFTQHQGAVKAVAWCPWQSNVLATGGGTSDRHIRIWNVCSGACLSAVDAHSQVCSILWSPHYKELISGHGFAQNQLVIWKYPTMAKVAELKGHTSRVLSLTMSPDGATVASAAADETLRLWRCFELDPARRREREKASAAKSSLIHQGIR", "assay": "Surface plasmon resonance (SPR) assay", "format": "binding", "settings": "for Kd: dissociation-equilibrium constant; for Kd / Kd (1/S): one-to-one model; for Kd (1/S): dissociation-rate constant", "protocol": "Surface plasmon resonance (SPR) analysis can measure the interaction process between various biomolecules, such as polypeptides, proteins, oligonucleotides, and oligosaccharides, as well as viruses, bacteria, cells, and small molecular compounds. First, we installed the COOH chip according to the standard operating procedure of the OpenSPRTM instrument and started running it at the maximum flow rate (150 μL/min). The detection buffer was PBS, and after reaching the signal baseline, 200 μL of isopropanol were loaded and the air was removed by running for 10 s. After reaching baseline, the sample loop was flushed with buffer and evacuated with air, and after the signal reached baseline, the buffer flow rate was adjusted to 20 μL/min. A total of 200 μL of EDC/NHS (1:1) solution (20 μL/min, 4 min), 200 μL EDC/NHS (1:1) solution (20 μL/min, 4 min), and 200 μL recombinant human Cdc20 protein buffer was loaded and run for 4 min (20 μL/min), and the sample loop was rinsed with buffer and drained with null air. A total of 200 μL of blocking solution was loaded (20 μL/min, 4 min), and the sample loop was flushed with buffer and evacuated with air. After the baseline was stable, the analyte was diluted with buffer and loaded at 20 μL/min. The binding time of the analyte and the ligand was 240 s, and the natural dissociation time was 480 s. The analysis software used for the experimental results was TraceDrawer (Ridgeview Instruments ab, Sweden), and the analysis method was the one-to-one analysis model.\nMolecules were tested in a dilution series starting at 500 μM. The analyte was diluted with buffer and loaded at 20 μL/min. The binding time of the analyte and the ligand was 240 s, and the natural dissociation time was 480 s. The analysis software used for the experimental results was TraceDrawer (Ridgeview Instruments AB, Sweden), and the analysis method was the one-to-one analysis model."}, "[10]": {"tested_on": "Mcf-7", "parameters": "method as in PMID 32290657", "settings": "previous studies; read-out: IC50 ± SD Mcf-7; cited from earlier work"}, "[11]": {"tested_on": "Hepg2", "parameters": "method as in PMID 32290657", "settings": "previous studies; read-out: IC50 ± SD Hepg2; cited from earlier work"}, "[12]": {"tested_on": "Hela", "parameters": "method as in PMID 32290657", "settings": "previous studies; read-out: IC50 ± SD Hela; cited from earlier work"}, "[13]": {"tested_on": "four cancer-cell lines", "assay": "In vitro antiproliferative assay (CCK-8), cell line not given", "settings": "Homo sapiens, read-out: IC50 (antiproliferative activity)"}, "[14]": {"tested_on": "tubulin", "parameters": "method as in PMID 32290657", "settings": "previous research of the authors; cited from earlier work"}}, "note": "Like-named read-outs stand apart in the source and are kept apart here.", "data": [{"molecule": "Nc1nc(F)nc2c1ncn2C(NC(=O)NCCN1CCOCC1)C(Cl)(Cl)Cl", "note": "(stereo not drawn) [Compound 27, 1-(1-(6-amino-2-fluoro-9H-purin-9-yl)-2,2,2-trichloroethyl)-3-(2-morpholinoethyl)urea]", "values": [{"measurement": "number of cells in the mitotic G2/M phase", "setting": "[1]", "value": "slightly reduced"}, {"measurement": "effect on microtubule polymerization", "setting": "[2]; cell-free, purified tubulin, 37 °C, absorbance 340 nm, 3 μM and 30 μM", "value": "promoted microtubule polymerization in a concentration-dependent manner"}, {"measurement": "IC50", "setting": "[3]", "value": "0.32 ± 0.04", "unit": "µM"}, {"measurement": "IC50", "setting": "[4]", "value": "0.27 ± 0.06", "unit": "µM"}, {"measurement": "IC50", "setting": "[5]", "value": "0.24 ± 0.11", "unit": "µM"}, {"measurement": "IC50", "setting": "[6]", "value": "0.06 ± 0.02", "unit": "µM"}, {"measurement": "apoptotic rates", "setting": "[7]", "value": "increased in a concentration-dependent way"}, {"measurement": "expression of Bim", "setting": "[8]", "value": "significantly increase"}, {"measurement": "expression of cleaved PARP", "setting": "[8]", "value": "significantly increase"}, {"measurement": "level of cyclin B1 protein", "setting": "[8]", "value": "significantly increased"}, {"measurement": "level of securin protein", "setting": "[8]", "value": "significantly increased"}, {"measurement": "Cdc20 protein level", "setting": "[8]", "value": "no effect"}]}, {"molecule": "CC(=O)O[C@H]1C(=O)[C@@]2(C)[C@H]([C@H](OC(=O)c3ccccc3)[C@]3(O)C[C@H](OC(=O)[C@H](O)[C@@H](NC(=O)c4ccccc4)c4ccccc4)C(C)=C1C3(C)C)[C@]1(OC(C)=O)CO[C@@H]1C[C@@H]2O", "note": "[paclitaxel, reference compound]", "values": [{"measurement": "effect on microtubule polymerization", "setting": "[2]; reference compound, concentration not given", "value": "promote microtubule polymerization"}]}, {"molecule": "Cc1ncc([N+](=O)[O-])n1CCOC(=O)N[C@@H](Nc1ncccn1)C(Cl)(Cl)Cl", "note": "(racemic) [Apcin]", "values": [{"measurement": "Kd", "setting": "[9]", "value": 236, "unit": "µM"}, {"measurement": "Kd (1/S)", "setting": "[9]", "value": "2.33 × 10^−2 1/S"}, {"measurement": "P4 gate (cells in the G2/M phase)", "setting": "[1]; 150μm", "value": 34.87, "unit": "%"}, {"measurement": "number of cells in the mitotic G2/M phase", "setting": "[1]", "value": "significant increase"}, {"measurement": "IC50", "setting": "[3]", "value": "> 100", "unit": "µM"}, {"measurement": "IC50", "setting": "[4]", "value": "> 100", "unit": "µM"}, {"measurement": "IC50", "setting": "[5]", "value": "> 100", "unit": "µM"}, {"measurement": "IC50", "setting": "[6]", "value": "182 ± 12.5", "unit": "µM"}, {"measurement": "apoptotic rates", "setting": "[7]", "value": "increased in a concentration-dependent way"}]}, {"molecule": "Cc1ncc([N+](=O)[O-])n1CCOC(=O)N[C@H](Nc1c(Cl)nc(N)nc1Cl)C(Cl)(Cl)Cl", "note": "[Compound 7d]", "values": [{"measurement": "IC50", "setting": "[10]", "value": "160 ± 5", "unit": "µM"}, {"measurement": "IC50", "setting": "[11]", "value": "25.6 ± 6.1", "unit": "µM"}, {"measurement": "IC50", "setting": "[12]", "value": "63.2 ± 0.9", "unit": "µM"}]}, {"molecule": "Nc1c(Cl)nc(NC(NC(=O)NCCc2ccccc2)C(Cl)(Cl)Cl)nc1Cl", "note": "(stereo not drawn) [Compound 20, 1-(1-((5-amino-4,6-dichloropyrimidin-2-yl)amino)-2,2,2-trichloroethyl)-3-phenethylurea]", "values": [{"measurement": "Kd", "setting": "[9]", "value": 79.6, "unit": "µM"}, {"measurement": "Kd (1/S)", "setting": "[9]", "value": "5.78 × 10^−3 1/S"}, {"measurement": "binding affinity to Cdc20 relative to Apcin", "setting": "[9]; from Kd values", "value": "about three times"}, {"measurement": "P4 gate (cells in the G2/M phase)", "setting": "[1]; 40μm", "value": 41.09, "unit": "%"}, {"measurement": "number of cells in the mitotic G2/M phase", "setting": "[1]", "value": "significant increase"}, {"measurement": "effect on microtubule polymerization", "setting": "[2]; cell-free, purified tubulin, 37 °C, absorbance 340 nm, 30 μM", "value": "slightly promoted microtubule polymerization"}, {"measurement": "IC50", "setting": "[3]", "value": "30.4 ± 13", "unit": "µM"}, {"measurement": "IC50", "setting": "[4]", "value": "35 ± 3.06", "unit": "µM"}, {"measurement": "IC50", "setting": "[5]", "value": "31.2 ± 8.37", "unit": "µM"}, {"measurement": "IC50", "setting": "[6]", "value": "24.7 ± 2.01", "unit": "µM"}, {"measurement": "IC50", "setting": "[13]", "value": "< 40", "unit": "µM"}, {"measurement": "apoptotic rates", "setting": "[7]", "value": "increased in a concentration-dependent way"}, {"measurement": "expression of Bim", "setting": "[8]", "value": "significantly increase"}, {"measurement": "expression of cleaved PARP", "setting": "[8]", "value": "significantly increase"}, {"measurement": "level of cyclin B1 protein", "setting": "[8]", "value": "significantly increased"}, {"measurement": "level of securin protein", "setting": "[8]", "value": "significantly increased"}, {"measurement": "Cdc20 protein level", "setting": "[8]", "value": "no effect"}]}, {"molecule": "Nc1nc(F)nc2c1ncn2[C@H](NC(=O)OCCN1CCOCC1)C(Cl)(Cl)Cl", "note": "[Compound 9f, reference compound]", "values": [{"measurement": "effect on Cdc20 and microtubules", "setting": "[14]", "value": "dual inhibitory effects of Cdc20 and microtubules"}, {"measurement": "IC50", "setting": "[3]", "value": "1.4 ± 0.22", "unit": "µM"}, {"measurement": "IC50", "setting": "[4]", "value": "0.61 ± 0.12", "unit": "µM"}, {"measurement": "IC50", "setting": "[5]", "value": "0.41 ± 0.36", "unit": "µM"}, {"measurement": "IC50", "setting": "[6]", "value": "0.1 ± 0.02", "unit": "µM"}, {"measurement": "IC50", "setting": "[12]", "value": "0.3 ± 0.2", "unit": "µM"}]}]}
